Experimental data: patent US20220125807A1, “PHARMACEUTICAL COMBINATION OF WNT SIGNALING AND MACC1 INHIBITORS” (Max-Delbrück-Centrum für Molekulare Medizin in der …, priority 2019, published 2022)

How the values were obtained:
HCT116-CMVp-Luc cells = assay: Xenograft mouse model of liver metastasis, intrasplenic transplantation, bioluminescence imaging; assay type: in vivo, SCID-beige mice; conditions: daily p.o., alone or combined, vs solvent; for Metastasis formation to the liver (luminescence), reduced dose: statin 1.5 mg/kg, niclosamide 164 mg/kg; for Metastasis formation to the liver (luminescence), maximum human dose equivalent: statin 13 mg/kg, niclosamide 328 mg/kg
Procedure: Severe combined immunodeficiency (SCID)-beige mice (n=10 per group) were intrasplenically transplanted with HCT116-CMVp-Luc cells and treated daily with solvent, 13 mg/kg atorvastatin or fluvastatin (p.o.), 328 mg/kg niclosamide (p.o.) or the combination of niclosamide with one of the statins, at the indicated doses. These doses correspond to the maximum human doses established for the statins and niclosamide. Metastasis to the liver was analyzed with bioluminescence imaging after an intraperitoneal application of 150 mg/kg D-Luciferin at the experimental endpoint. Following whole animal imaging livers were removed and analyzed as isolated organs.
Severe combined immunodeficiency (SCID)-beige mice (n=10 per group) were intrasplenically transplanted with HCT116-CMVp-Luc cells and treated daily with solvent, 1.5 mg/kg atorvastatin or fluvastatin (p.o.), 164 mg/kg niclosamide (p.o.) or the combination of niclosamide with one of the statins, at the indicated doses. These doses therefore correspond to 12.5% of the maximum human dose for the statins and 50% of the maximum human dose for niclosamide. Metastasis to the liver was analyzed with bioluminescence imaging after an intraperitoneal application of 150 mg/kg D-Luciferin at the experimental endpoint. Following whole animal imaging livers were removed and analyzed as isolated organs.
All experiments were performed in accordance with the United Kingdom Coordinated Committee on Cancer Research (UKCCCR) guidelines and approved by the responsible local authorities (State Office of Health and Social Affairs, Berlin, Germany). For in vivo drug testing a xenograft mouse model was used as described earlier (Stein 2009 Nat Med, Sack 2011 J Natl Cancer Inst,
Juneja & Kobelt 2017 Plos Biol). In brief, HCT116-CMVp-LUC cells (5×10^5 cells per mouse, resuspended in 50 μL PBS) were intrasplenically transplanted into 6-week-old female SCID beige (SCID bg/bg) mice. The animals were assigned randomly into treatment groups.
Drugs were administered as a suspension using a gavage tube. Both niclosamide (either 328 mg/kg or 164 mg/kg) and a statin (atorvastatin or fluvastatin, at 13 mg/kg or 1.5 mg/kg) were administered daily, orally. Control mice were treated with the appropriate volume of solvent solution. The in vivo experimentation and luminescence imaging were conducted as described below.
For luminescence imaging, mice were anesthetized with 5% Isoflurane and received intraperitoneally 150 mg/kg D-luciferin (Biosynth, Staad, Switzerland) dissolved in sterile PBS. Anesthesia was maintained with 2% isoflurane. Imaging was performed with the NightOWL LB 981 system (Berthold Technologies, Bad Wildbad, Germany). ImageJ version 1.48v (NIH, Bethesda, Md.) was used for color coding of signal intensity (presenting a 256 grayscale) and overlay pictures.

HCT116 cells = assay: Wound healing (scratch) assay, IncuCyte, with Loewe synergy calculation; assay type: cell-based, human; conditions: HCT116, three concentrations (statin 5/2.5/1.25 μM, niclosamide 1/0.5/0.25 μM), 48 h, vs DMSO
Procedure: For wound healing assays the HCT116 human colon cancer cell line was used. HCT116 cells are endogenously positive for MACC1 and S100A4 expression at the mRNA and protein level. In addition, they show decreased motility when either marker is inhibited. For wound healing (scratch) experiments cells were passaged to a density of 6×10^5 per ml and cultured for 48 h. Cells were then harvested and counted. For wound healing assays 1.2×10^5 cells were seeded in 100 μl RPMI supplemented with 10% FCS in 96 well Image Lock Plates (Essen Bioscience, Hertfordshire, UK). Cells were allowed to adhere for 6 hours. Wounds in the monolayer were applied using the IncuCyte WoundMaker (Essen Bioscience). After applying the wounds 100 μl of 2-fold concentrated drug solutions were added. DMSO treated and untreated samples served as controls. For each drug three different (niclosamide 1 μM, 0.5 μM and 0.25 μM, each statin 5 μM, 2.5 μM and 1.25 μM, MEK1 inhibitors 1 μM, 0.1 μM and 0.01 μM) concentrations and combinations thereof were applied, each in triplicate. Of all statins, we tested lovastatin, fluvastatin and atorvastatin. Wound closure was monitored every second hour in the IncuCyte system (Essen Bioscience). A pre-established image collection of HCT116 was used to teach the software detection of cells and wound. Wound confluency was expressed relative to DMSO treated controls. Synergy was analyzed using combenefit 2.021. DMSO treated samples were set to 100%. To calculate synergy, we used the Loewe isobole equation model. For the calculations dose-response curves for three single concentrations and the nine combinations thereof were used. The Loewe model was applied since there is a certain degree of target interaction already shown: first, active Wnt-signaling is important for MACC1 driving tumor progression and invasiveness (Lemos C, Clin Cancer Res, 2016) and second, S100A4 is a Wnt-signaling target gene and is found in the MACC1 induced secretome. The three single concentrations and nine combinations thereof were expressed relative to the control.

MACC1 [1] = assay: MACC1 mRNA expression by qRT-PCR in statin-treated HCT116 cells; assay type: cell-based, human; conditions: 1-10 μM statin, 24 h, relative to DMSO treated control
Procedure: (§1) HCT116 cells were treated with increasing amounts (1-10 μM) of different, clinically relevant statins dissolved in DMSO. Following 24 h of treatment cells were harvested for RNA and protein isolation. MACC1 mRNA expression was analyzed by qRT-PCR and is expressed relative to DMSO treated control samples. Protein amounts were analyzed by western blot.
(§2) HCT116, SW620 and SW480 colorectal carcinoma cells were purchased from ATCC. HCT116 cells were stably transduced with GFP/ MACC1-GFP plasmids to produce MACC1 overexpressing cell lines and SW620 cells were stably transduced by sh-control/sh-MACC1 plasmids to produce MACC1 knockdown cell lines. SW480 stable MACC1 overexpressing cell lines were created using pCDNA3.1 MACC1 plasmids and the control cells were produced using pCDNA3.1 empty plasmids followed clone selection using Gentamycin (Gibco). Knock-out of MACC1 in SW620 cells was achieved by CRISPR-Cas9 based gene editing followed by Puromycin (Gibco) based selection and subsequently the clones were picked using single cell sorting. Cells were cultured in RPMI supplemented with 10% FCS in 5% CO2 humidified atmosphere and sub passaged 2-3 times a week to maintain cultures subconfluent. Drugs were solubilized in DMSO, stock concentrations were 2 mM for niclosamide (Sigma-Aldrich, St Louis, Mo., USA), 2 mM for GSK1120212 (trametinib, Selleck Chemicals, Munich, Germany) and selumetinib (AZD6244, Selleck Chemicals, Munich, Germany) and 10 mM for statins (atorvastatin, lovastatin, fluvastatin, TCI Deutschland GmbH, Eschborn, Germany). All drugs were pre-diluted to 1000× final concentration in DMSO. Control cells were treated with equal amounts of DMSO.
RNA was isolated using the Gene Matrix Universal RNA Purification Kit (EURx, Poland) according to the manufacturer's instructions. RNA was quantified and 50 ng of RNA was reverse transcribed using a reaction mix containing MuLV reverse transcriptase, 10 mM MgCl2, 1× PCR-Buffer, 250 μM pooled dNTPs, 1U RNAse inhibitor and random hexamers (all from Applied Biosystems). The reaction was performed at 42° C. for 15 min, 99° C. for 5 min and subsequent cooling at 4° C. for 5 min. The cDNA was amplified using SYBR Green chemistry (Promega) using the LightCycler 480 II system (Roche Diagnostics) at the following PCR conditions: 95° C. for 2 min followed by 45 cycles of 95° C. for 7 s, 60° C. for 10 s and 72° C. for 20 s. The primers used for quantification are as follows: MACC1 Fwd 5′-[…]-3′ and Rev 5′-[…]-3′; S100A4 Fwd 5′-[…]-3′ and Rev 5′- […]-3′. Data analysis was performed with LightCycler 480 Software release 1.5.0 SP3 (Roche Diagnostics). Mean values was calculated from RT-qPCR duplicates. Each mean value of the expressed gene was normalized to the respective RP-II cDNA. […]

MACC1 [2] = assay: MACC1 protein by western blot in statin-treated HCT116 cells; assay type: cell-based, human; conditions: 1-10 μM statin, 24 h
Procedure: as §1, §2
Whole cell protein extraction was performed on 5×10^5 HCT116 and SW620 cells. Cells were lysed using RIPA buffer (50 mM Tris-HCT pH 7.5, 150 mM NaCl, 1% Nonidet P-40) supplemented with cOmplete Protease inhibitor (Roche) for 30 min at 4° C. The lysate was clarified and the protein content was measured using the BCA Kit (Pierce). 20 μg protein lysate were denatured with LDS-containing NuPage Loading buffer (invitrogen) and DTT for 10 min.
Proteins were then resolved in 10% SDS-PAGE followed by protein transfer onto PVDF membranes (BioRAD). The membrane was blocked with 5% w/v skim milk powder and 1% w/v BSA in TBST (10 mM Tris-HCL pH 8, 150 mM NaCl and 0.1% Tween 20) for 60 min. The membrane was incubated overnight with the respective primary antibodies (anti-MACC1, #HPA020081, Sigma Aldrich; S100A4, #5114, Dako and β-Actin, #31430, Invitrogen; Lamin B1, #12586s, Cell Signalling). The membranes were washed and further incubated with corresponding horseradish peroxidase-tagged secondary antibodies (anti-mouse IgG HRP-conjugated, #31430, Invitrogen and anti-rabbit IgG HRP-conjugated, #W4018, Promega) for 60 min. […]

| Structure (SMILES) | Metastasis formation to the liver (luminescence), reduced dose (HCT116-CMVp-Luc cells) | Metastasis formation to the liver (luminescence), maximum human dose equivalent (HCT116-CMVp-Luc cells) | Wound closure (cellular motility), single agents (HCT116 cells) | MACC1 mRNA expression (MACC1 [1]) | MACC1 protein (MACC1 [2]) |
| --- | --- | --- | --- | --- | --- |
| O=C(Nc1ccc([N+](=O)[O-])cc1Cl)c1cc(Cl)ccc1O [niclosamide, 5-Chloro-N-(2-chloro-4-nitrophenyl)-2-hydroxybenzamide] | no reduction in metastasis formation | significantly reduced | dose dependent reduction of wound closure ability |  |  |
| CC(C)c1c(C(=O)Nc2ccccc2)c(-c2ccccc2)c(-c2ccc(F)cc2)n1CC[C@@H](O)C[C@@H](O)CC(=O)O [atorvastatin] | no reduction in metastasis formation | significantly reduced | dose dependent reduction of wound closure ability | shown to reduce | shown to reduce |
| O=C(O)C[C@H](O)C[C@H](O)/C=C/c1c(C2CC2)nc2ccccc2c1-c1ccc(F)cc1 [Pitavastatin] |  |  |  | shown to reduce | shown to reduce |
| CC[C@H](C)C(=O)O[C@H]1C[C@@H](C)C=C2C=C[C@H](C)[C@H](CC[C@@H]3C[C@@H](O)CC(=O)O3)[C@H]21 [lovastatin] |  |  | dose dependent reduction of wound closure ability | shown to reduce | shown to reduce |
| CC(C)n1c(/C=C/[C@H](O)C[C@H](O)CC(=O)O)c(-c2ccc(F)cc2)c2ccccc21 (racemic) [fluvastatin] | no reduction in metastasis formation | significantly reduced | dose dependent reduction of wound closure ability | shown to reduce | shown to reduce |
